Experiments:
kochia = assay: Test C pre-/postemergence test; type: in vivo, Kochia scoparia
Excerpt: (§1) Seeds of plant species selected from blackgrass (Alopecurus myosuroides), downy brome (Bromus tectorum), green foxtail (Setaria viridis), Italian ryegrass (Lolium multiflorum), wheat (Triticum aestivum), wild oat (Avena fatua), catchweed bedstraw (Galium aparine), Russian thistle (Salsola kali), […] (Cynodon dactylon), Surinam grass (Brachiaria decumbens), cocklebur (Xanthium strumarium), corn (Zea mays), crabgrass (Digitaria sanguinalis), woolly cupgrass (Eriochloa villosa), giant foxtail (Setaria faberii), Goosegrass (Eleusin indica), johnsongrass (Sorghum halepense), kochia (Kochia scoparia), lambsquarters (Chenopodium album), morningglory (Ipomoea coccinea), eastern black nightshade (Solanum ptycanthum), yellow nutsedge (Cyperus esculentus), pigweed (Amaranthus retroflexus), common ragweed (Ambrosia elation), soybean (Glycine max), common (oilseed) sunflower (Helianthus annuus), and velvetleaf (Abutilon theophrasti) were planted and treated preemergence with test chemicals formulated in a non-phytotoxic solvent mixture which included a surfactant. At the same time, plants selected from these crop and weed species and also winter barley (Hordeum vulgare), canarygrass (Phalaris minor), and chickweed (Stellaria media) were treated with postemergence applications of some of the test chemicals formulated in the same manner. Plants ranged in height from 2 to 18 cm (1- to 4-leaf stage) for postemergence treatments. […] At time of treatment, test pots were flooded to 3 cm above the soil surface, treated by application of test compounds directly to the paddy water, and then maintained at that water depth for the duration of the test. […] A dash (-) response means no test result.

yellow nutsedge = assay: Test C pre-/postemergence test; type: in vivo, Cyperus esculentus
Excerpt: as §1

crabgrass = assay: Test A pre-/postemergence greenhouse test; type: in vivo, Digitaria sanguinalis; details: for Plant response rating, Crabgrass, Large: 0 to 100 scale where 0 is no effect and 100 is complete control; for Crabgrass, Large plant response rating: 0 to 100 scale
Outline: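 Visual injury ratings, made relative to untreated controls roughly ten days after treatment, cover both preemergence and postemergence application. Compounds in a surfactant-containing non-phytotoxic solvent were sprayed onto the soil surface after sowing and, simultaneously, onto young plants at the one- to two-leaf stage.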

common ragweed = assay: Test C pre-/postemergence test; type: in vivo, Ambrosia elation
Excerpt: as §1

[1] = 62 g ai/ha, Preemergence, scale 0 to 100
[2] = 125 g ai/ha, preemergence, scale 0 (no effect) to 100 (complete control)
[3] = Preemergence, 31 g ai/ha, scale 0 to 100 (0 no effect, 100 complete control)
[4] = preemergence, 250 g ai/ha, scale 0 (no effect) to 100 (complete control)
[5] = Postemergence, 500 g ai/ha, 0 is no effect, 100 is complete control
[6] = Preemergence, 125 g ai/ha, 0 no effect, 100 complete control
[7] = 31 g ai/ha, Preemergence, scale 0 to 100
[8] = 62 g ai/ha, preemergence, scale 0 (no effect) to 100 (complete control)
[9] = Postemergence, 62 g ai/ha, scale 0 to 100, 0 no effect, 100 complete control
[10] = Postemergence, 125 g ai/ha, scale 0 to 100, 0 no effect, 100 complete control
[11] = Postemergence, 250 g ai/ha, scale 0 to 100, 0 no effect, 100 complete control

| Compound | Kochia plant response rating (kochia; [1]) | Kochia plant response rating (kochia; [2]) | Plant response rating, Kochia (kochia; [3]) | Kochia plant response rating (kochia; [4]) | Nutsedge, Yellow plant response rating (yellow nutsedge; [1]) | Nutsedge, Yellow plant response rating (yellow nutsedge; [2]) | Plant response rating, Nutsedge, Yellow (yellow nutsedge; [3]) | Nutsedge, Yellow plant response rating (yellow nutsedge; [4]) | Plant response rating, Crabgrass, Large (crabgrass; Postemergence, 125 g ai/ha) | Crabgrass, Large plant response rating (crabgrass; [5]) | Crabgrass, Large plant response rating (crabgrass; [6]) | Plant response rating, Crabgrass, Large (crabgrass; Preemergence, 500 g ai/ha) | Ragweed plant response rating (common ragweed; [1]) | Ragweed plant response rating (common ragweed; [2]) | Plant response rating, Ragweed (common ragweed; [3]) | Ragweed plant response rating (common ragweed; [4]) | also measured |
| --- | --- | --- | --- | --- | --- | --- | --- | --- | --- | --- | --- | --- | --- | --- | --- | --- | --- |
| Cn1nc(C(F)(F)F)c(C[S+]([O-])c2cccc[n+]2[O-])c1OCC(F)F (stereo not drawn) [Compound 75] | 100 | 100 | 100 | 100 | 50 | 70 | 0 | 100 | 70 | 80 | 70 | 100 | 80 | 85 | 0 | 100 |  |
| CC(c1c(C(F)(F)F)nn(CC(F)(F)F)c1Cl)[S+]([O-])c1cccc[n+]1[O-] (stereo not drawn) [Compound 46] | 50 | 100 | 50 | 100 | 60 | 65 | 60 | 100 | 70 | 80 | 70 | 100 | 0 | 5 | 0 | 60 |  |
| Cn1nc(C(F)(F)F)c(C(Cl)S(=O)(=O)c2cccc[n+]2[O-])c1Cl (stereo not drawn) [Compound 12] |  |  |  |  |  |  |  |  |  | 70 | 70 | 100 |  |  |  |  | Kochia plant response rating (kochia; [7]): 0; Kochia plant response rating (kochia; [8]): 0; Plant response rating (0 to 100), Kochia (kochia; Preemergence, 250 g ai/ha): 80; Nutsedge, Yellow plant response rating (yellow nutsedge; [7]): 45; Nutsedge, Yellow plant response rating (yellow nutsedge; [8]): 70; Plant response rating (0 to 100), Nutsedge, Yellow (yellow nutsedge; Preemergence, 250 g ai/ha): 100; Nutsedge, Yellow plant response rating (yellow nutsedge; preemergence, 125 g ai/ha, scale 0 (no effect) to 100 (complete control)): 90; Crabgrass, Large plant response rating (crabgrass; Postemergence, 125 g ai/ha, 0 is no effect, 100 is complete control): 60; Ragweed plant response rating (common ragweed; [7]): 0; Ragweed plant response rating (common ragweed; [8]): 0; Plant response rating (0 to 100), Ragweed (common ragweed; Preemergence, 250 g ai/ha): 20 |
| Cc1cc[n+]([O-])c(S(=O)(=O)Cc2c(C(F)(F)F)nn(C)c2OCC(F)F)c1 [Compound 94] | 100 | 100 | 85 | 100 | 55 | 60 | 0 | 98 | 70 | 90 | 90 | 100 | 100 | 100 | 60 | 100 |  |
| CCn1nc(C(F)(F)F)c(C[S+]([O-])c2cccc[n+]2[O-])c1OCC(F)(F)F (racemic) [Compound 65] | 100 | 100 | 100 | 100 | 40 | 50 | 0 | 60 | 80 | 90 | 90 | 100 | 100 | 100 | 100 | 100 | Plant response rating (0 to 100), Kochia (kochia; Postemergence, 31 g ai/ha): 0; Plant response rating, Kochia (kochia; [9]): 0; Plant response rating, Kochia (kochia; [10]): 0; Plant response rating, Kochia (kochia; [11]): 0; Plant response rating (0 to 100), Nutsedge, Yellow (yellow nutsedge; Postemergence, 31 g ai/ha): 0; Plant response rating, Nutsedge, Yellow (yellow nutsedge; [9]): 0; Plant response rating, Nutsedge, Yellow (yellow nutsedge; [10]): 0; Plant response rating, Nutsedge, Yellow (yellow nutsedge; [11]): 0; Plant response rating (0 to 100), Ragweed (common ragweed; Postemergence, 31 g ai/ha): 0; Plant response rating (0 to 100), Ragweed (common ragweed; Postemergence, 62 g ai/ha): 0; Plant response rating, Ragweed (common ragweed; [10]): 0; Plant response rating, Ragweed (common ragweed; [11]): 0 |

Reference: patent US20100298141A1, “SUBSTITUTED PYRIDINE N-OXIDE HERBICIDES” (E. I. DU PONT DE NEMOURS AND COMPANY, priority 2007, published 2010)
